The target in experiment [1] is T1, Recombinant His-tagged NAMPT (Homo sapiens, UniProt P43490).
T1 construct: His; host or cells: E. coli
The experiment can be described thus: Biochemical inhibition assay: NAMPT enzymatic reaction, NMN quantified by mass spectrometry. The settings on record: 33 nM NAMPT, 1 μM NAM, 100 μM PRPP, 2.5 mM ATP, 30 minutes at room temperature; read-out: Biochem IC50. An outline of the steps: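 Reaction 30 min at room temperature with 1 μM NAM, 100 μM PRPP, 2.5 mM ATP (final), quenched with formic acid. NMN quantified by RapidFire electrospray MS, normalized to L-cystathionine; IC50 from percent inhibition versus DMSO.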

For experiment [2], the system named is A2780 cells. The experiment can be described thus: In-vitro cell proliferation assay (SRB, 72 hours). It counts as cell-based. The settings on record: Homo sapiens, sulforhodamine B (SRB) assay. An outline of the steps:
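Background from media-only plate subtracted; inhibition relative to DMSO-treated cells, value derived by interpolation between two concentrations.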
(In general: Sulforhodamine B stains cellular protein and so reports cell mass.)

Here are results for 31 compounds from US9555039B2, “Piperidine derivatives and compositions for the inhibition of nicotinamide phosphoribosyltransferase (NAMPT)” (Forma TM, LLC., priority 2011, dated 2017).

As a reminder, the IC50 is the concentration that inhibits the measured activity by half.

T1 sequence (P43490 whole entry): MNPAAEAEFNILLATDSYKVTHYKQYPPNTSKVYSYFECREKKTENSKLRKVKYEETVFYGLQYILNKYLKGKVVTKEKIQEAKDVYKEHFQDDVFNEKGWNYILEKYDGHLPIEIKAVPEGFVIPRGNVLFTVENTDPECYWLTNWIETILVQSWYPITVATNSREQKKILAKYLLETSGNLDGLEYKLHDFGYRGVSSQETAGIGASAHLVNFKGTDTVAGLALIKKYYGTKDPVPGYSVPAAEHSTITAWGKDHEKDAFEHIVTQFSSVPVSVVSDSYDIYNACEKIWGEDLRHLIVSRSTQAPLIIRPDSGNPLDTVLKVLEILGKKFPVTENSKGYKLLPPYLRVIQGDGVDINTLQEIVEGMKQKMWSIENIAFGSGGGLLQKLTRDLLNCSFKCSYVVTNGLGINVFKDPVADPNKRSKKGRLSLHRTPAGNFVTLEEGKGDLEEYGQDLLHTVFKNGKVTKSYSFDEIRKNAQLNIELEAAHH

Regarding `O=C(NCCCCC1CCN(C(=O)c2ccc3c(c2)OCO3)CC1)c1cc2cnccc2[nH]1` [N-(4-{1-[(2H-1,3-benzodioxol-5-yl)carbonyl]piperidin-4-yl}butyl)-1H-pyrrolo[3,2-c]pyridine-2-carboxamide], the IC50 in experiment [1] was 78.3 nM; in experiment [2] it was 14 nM.
On to `O=C(NCCCCC1CCN(C(=O)c2ccc(N3CCOCC3)nc2)CC1)c1ccc2nccn2c1` [N-[4-(1-{[6-(morpholin-4-yl)pyridin-3-yl]carbonyl}piperidin-4-yl)butyl]imidazo[1,2-a]pyridine-6-carboxamide], for which the IC50 came to 12.9 nM in experiment [1] and 5.9 nM in experiment [2].
On the same counts, the results for `COc1ccc(C(=O)N2CCC(CCCCNC(=O)c3ccc4nccn4c3)CC2)cc1F` [N-(4-{1-[(3-fluoro-4-methoxyphenyl)carbonyl]piperidin-4-yl}butyl)imidazo[1,2-a]pyridine-6-carboxamide] are 20.2 nM and 65.2 nM.
For `O=C(NCCCCC1CCN(C(=O)c2cccc(F)c2)CC1)c1ccc2nccn2c1` [N-(4-{1-[(3-fluorophenyl)carbonyl]piperidin-4-yl}butyl)imidazo[1,2-a]pyridine-6-carboxamide] the same measures were 9.2 nM and 10.3 nM.
For `O=C(NCCCCC1CCN(S(=O)(=O)c2cccnc2)CC1)c1cc2cnccc2[nH]1` [N-{4-[1-(pyridine-3-sulfonyl)piperidin-4-yl]butyl}-1H-pyrrolo[3,2-c]pyridine-2-carboxamide] the same measures were 16.1 nM and 13.9 nM.
For `O=C(NCCCCC1CCN(C(=O)c2csc(C(F)(F)F)n2)CC1)c1ccc2nccn2c1` [N-[4-(1-{[2-(trifluoromethyl)-1,3-thiazol-4-yl]carbonyl}piperidin-4-yl)butyl]imidazo[1,2-a]pyridine-6-carboxamide], the values for the IC50 in experiment [1] and in experiment [2] were 74.3 nM and 74 nM, respectively.
On the same counts, the results for `COc1ccccc1C(=O)N1CCC(CCCCNC(=O)c2cc3ccncc3s2)CC1` [N-(4-{1-[(2-methoxyphenyl)carbonyl]piperidin-4-yl}butyl)thieno[2,3-c]pyridine-2-carboxamide] are 7.7 nM and 3.3 nM.
Take `O=C(NCCCCC1CCN(C(=O)c2ccccc2F)CC1)c1cc2cnccc2[nH]1` [N-(4-{1-[(2-fluorophenyl)carbonyl]piperidin-4-yl}butyl)-1H-pyrrolo[3,2-c]pyridine-2-carboxamide]: the IC50 in experiment [1] was determined as 7.5 nM; in experiment [2], 0.5 nM.
For `O=C(NCCCCC1CCN(C(=O)c2ccc3[nH]ccc3c2)CC1)c1cc2cnccc2[nH]1` [N-(4-{1-[(1H-indol-5-yl)carbonyl]piperidin-4-yl}butyl)-1H-pyrrolo[3,2-c]pyridine-2-carboxamide] the same measures were 39.4 nM and 13.5 nM.
On the same counts, the results for `O=C(NCCCCC1CCN(C(=O)c2ccc(F)c(F)c2)CC1)c1ccc2nccn2c1` [N-(4-{1-[(3,4-difluorophenyl)carbonyl]piperidin-4-yl}butyl)imidazo[1,2-a]pyridine-6-carboxamide] are 19 nM and 66.2 nM.
For `O=C(NCCCCC1CCN(C(=O)c2cc3cc(F)ccc3[nH]2)CC1)c1cc2cnccc2[nH]1` [N-(4-{1-[(5-fluoro-1H-indol-2-yl)carbonyl]piperidin-4-yl}butyl)-1H-pyrrolo[3,2-c]pyridine-2-carboxamide] the same measures were 97.1 nM and 100 to 1000 nM.
Take `CCOc1ccccc1C(=O)N1CCC(CCCCNC(=O)c2cc3cnccc3[nH]2)CC1` [N-(4-{1-[(2-ethoxyphenyl)carbonyl]piperidin-4-yl}butyl)-1H-pyrrolo[3,2-c]pyridine-2-carboxamide]: the IC50 in experiment [1] was 30.5 nM; in experiment [2], 0.5 nM.
Take `O=C(NCCCCC1CCN(C(=O)c2ccc(OC(F)(F)F)cc2)CC1)c1ccc2nccn2c1` [N-[4-(1-{[4-(trifluoromethoxy)phenyl]carbonyl}piperidin-4-yl)butyl]imidazo[1,2-a]pyridine-6-carboxamide]: the IC50 was 91 nM in experiment [1] and 100 to 1000 nM in experiment [2].
On the same counts, the results for `COc1ccc(C(=O)N2CCC(CCCCNC(=O)c3cc4cnccc4[nH]3)CC2)cc1F` [N-(4-{1-[(3-fluoro-4-methoxyphenyl)carbonyl]piperidin-4-yl}butyl)-1H-pyrrolo[3,2-c]pyridine-2-carboxamide] are 63.1 nM and 21 nM.
On the same counts, the results for `O=C(NCCCCC1CCN(C(=O)c2cc3ccccc3s2)CC1)c1cc2cnccc2[nH]1` [N-(4-{1-[(1-benzothiophen-2-yl)carbonyl]piperidin-4-yl}butyl)-1H-pyrrolo[3,2-c]pyridine-2-carboxamide] are 124 nM and 69.9 nM.
As for `O=C(NCCCCC1CCN(C(=O)c2cccnc2)CC1)c1ccc2nccn2c1` [N-(4-{1-[(pyridin-3-yl)carbonyl]piperidin-4-yl}butyl)imidazo[1,2-a]pyridine-6-carboxamide], the figures for the IC50 in experiment [1] and in experiment [2] were 12.7 nM and 27.4 nM, respectively.
For `COc1cc(Cl)ccc1C(=O)N1CCC(CCCCNC(=O)c2cc3cnccc3[nH]2)CC1` [N-(4-{1-[(4-chloro-2-methoxyphenyl)carbonyl]piperidin-4-yl}butyl)-1H-pyrrolo[3,2-c]pyridine-2-carboxamide] the same measures were 62.1 nM and 6.1 nM.
On the same counts, the results for `CCOc1ccccc1C(=O)N1CCC(CCCCNC(=O)c2cc3ccncc3s2)CC1` [N-(4-{1-[(2-ethoxyphenyl)carbonyl]piperidin-4-yl}butyl)thieno[2,3-c]pyridine-2-carboxamide] are 4 nM and 0.6 nM.
On the same counts, the results for `O=C(NCCCCC1CCN(C(=O)c2cc3ccccc3[nH]2)CC1)c1ccc2nccn2c1` [N-(4-{1-[(1H-indol-2-yl)carbonyl]piperidin-4-yl}butyl)imidazo[1,2-a]pyridine-6-carboxamide] are 61.6 nM and 100 to 1000 nM.
As for `COc1ccc(C(=O)N2CCC(CCCCNC(=O)c3cc4ccncc4s3)CC2)cc1OC` [N-(4-{1-[(3,4-dimethoxyphenyl)carbonyl]piperidin-4-yl}butyl)thieno[2,3-c]pyridine-2-carboxamide], the values for the IC50 in experiment [1] and in experiment [2] were 32.6 nM and 6.9 nM, respectively.
On the same counts, the results for `O=C(NCCCCC1CCN(C(=O)c2ccc(F)cc2)CC1)c1ccc2nccn2c1` [N-(4-{1-[(4-fluorophenyl)carbonyl]piperidin-4-yl}butyl)imidazo[1,2-a]pyridine-6-carboxamide] are 12 nM and 26.2 nM.
On the same counts, the results for `COc1ccc(C(=O)N2CCC(CCCCNC(=O)c3ccc4nccn4c3)CC2)c(OC)c1` [N-(4-{1-[(2,4-dimethoxyphenyl)carbonyl]piperidin-4-yl}butyl)imidazo[1,2-a]pyridine-6-carboxamide] are 22.2 nM and 3.3 nM.
Regarding `Cc1nc(CC(=O)N2CCC(CCCCNC(=O)c3cc4cnccc4[nH]3)CC2)cs1` [N-(4-{1-[2-(2-methyl-1,3-thiazol-4-yl)acetyl]piperidin-4-yl}butyl)-1H-pyrrolo[3,2-c]pyridine-2-carboxamide], the IC50 was 49.4 nM in experiment [1] and 13.9 nM in experiment [2].
On the same counts, the results for `Cc1ccc(C(=O)N2CCC(CCCCNC(=O)c3cc4cnccc4[nH]3)CC2)cc1F` [N-(4-{1-[(3-fluoro-4-methylphenyl)carbonyl]piperidin-4-yl}butyl)-1H-pyrrolo[3,2-c]pyridine-2-carboxamide] are 77.1 nM and 22.4 nM.
For `O=C(NCCCCC1CCN(C(=O)c2cccc(F)c2F)CC1)c1cc2ccncc2s1` [N-(4-{1-[(2,3-difluorophenyl)carbonyl]piperidin-4-yl}butyl)thieno[2,3-c]pyridine-2-carboxamide] the same measures were 6.8 nM and 4.5 nM.
For `O=C(NCCCCC1CCN(C(=O)c2ccc(Cl)cc2)CC1)c1cc2cnccc2[nH]1` [N-(4-{1-[(4-chlorophenyl)carbonyl]piperidin-4-yl}butyl)-1H-pyrrolo[3,2-c]pyridine-2-carboxamide] the same measures were 114 nM and 65.7 nM.
`O=C(NCCCCC1CCN(C(=O)c2cnccc2C(F)(F)F)CC1)c1cc2cnccc2[nH]1` [N-[4-(1-{[4-(trifluoromethyl)pyridin-3-yl]carbonyl}piperidin-4-yl)butyl]-1H-pyrrolo[3,2-c]pyridine-2-carboxamide]: the values for the IC50 in experiment [1] and in experiment [2] were 39.8 nM and 2.9 nM, respectively.
As for `COc1cccc(OC)c1C(=O)N1CCC(CCCCNC(=O)c2ccc3nccn3c2)CC1` [N-(4-{1-[(2,6-dimethoxyphenyl)carbonyl]piperidin-4-yl}butyl)imidazo[1,2-a]pyridine-6-carboxamide], the IC50 came to 28.6 nM in experiment [1] and 1 nM in experiment [2].
Consider `Cn1c(C(=O)N2CCC(CCCCNC(=O)c3cc4cnccc4[nH]3)CC2)cc2ccccc21` [N-(4-{1-[(1-methyl-1H-indol-2-yl)carbonyl]piperidin-4-yl}butyl)-1H-pyrrolo[3,2-c]pyridine-2-carboxamide], for which the IC50 in experiment [1] was found to be 134 nM; in experiment [2] it was 23.8 nM.
On the same counts, the results for `O=C(NCCCCC1CCN(C(=O)c2ccoc2)CC1)c1cc2cnccc2[nH]1` [N-(4-{1-[(furan-3-yl)carbonyl]piperidin-4-yl}butyl)-1H-pyrrolo[3,2-c]pyridine-2-carboxamide] are 9.1 nM and 10.1 nM.
On the same counts, the results for `Cc1c(F)cccc1C(=O)N1CCC(CCCCNC(=O)c2ccc3nccn3c2)CC1` [N-(4-{1-[(3-fluoro-2-methylphenyl)carbonyl]piperidin-4-yl}butyl)imidazo[1,2-a]pyridine-6-carboxamide] are 13.1 nM and 3.5 nM.
